According to patent US20210392882A1, “METHODS AND COMPOSITIONS FOR IMPROVED INSECT REPELLENCY” (Board of Trustees of Michigan State University, priority 2020, published 2021):

Experiments:
[1] = test system: sst-1 sensilla (sst-1A and sst-1B neurons); test: Single sensillum recording (SSR) of antennal sst-1 sensilla; format: cell-based, Aedes aegypti; details: for response of sst-1A neurons: ROCK, 10^−1 dilution, FIG. 4A; for response of sst-1A neuron: wild-type ROCK, pyrethrum at 10^−2
Method: (§1) Single sensilla recording was conducted as described in Liu et al. J Insect Physiol 59, 1169-1177 (2013). Female mosquitoes 4 days after eclosion were anaesthetized (2-3 min on ice) and mounted on a microscope slide (76×26 mm). An antenna was fixed using a double-sided tape to a cover slip resting on a small ball of dental wax to facilitate manipulation. The cover slip was placed at an appropriate angle to the mosquito head. Once mounted, the specimen was placed under a microscope (Nikon SMA645, Japan) and the antenna viewed at a high magnification (1000×). Two tungsten microelectrodes were sharpened in 10% KNO2 at 2-10 V. The reference electrode, which was connected to ground, was inserted into the compound eye of the mosquito and the other was connected to the preamplifier (10×, Syntech, Kirchzarten, Germany) and inserted into the shaft of an olfactory sensillum to complete the electrical circuit to extracellularly record olfactory receptor neuron potentials (Den Otter et al., Journal of Insect Physiology 26, 465-472 (1980)). Controlled manipulation of the electrodes was performed using a micromanipulator (Burleigh PCS-6000, CA). The preamplifier was connected to an analog-to-digital signal converter (IDAC-4, Syntech, Germany), which in turn was connected to a computer for signal recording and visualization. The activity of co-located olfactory receptor neurons in each sensillum was assessed based on the differences in spike amplitude. The large spike amplitude was designated as cell A and the olfactory receptor neuron with the small spike amplitude was designated cell B (Ghaninia et al. Eur J Neurosci 26, 1611-1623 (2007)). Signals were recorded for 10 seconds starting 1 second before stimulation, and the action potentials were counted off-line over a 500-ms period before and after stimulation. The spontaneous firing rates observed in the preceding 500 milliseconds (ms) were subtracted from the total spike rates observed during the 500-ms stimulation, and counts were recorded in units of spikes/second.
(§2) Eighteen compounds besides pyrethrum from different chemical classes were selected for functional classification of olfactory sensilla with various morphological shapes (Extended Data FIG. 2). Each compound was diluted in dimethyl sulfoxide (DMSO) to a stock solution with a concentration of 100 μg/μl. Subsequently, a series of 10-fold dilutions were made from each of the stock solutions for each compound tested. For each dilution, a 10 μl portion was dispersed onto a filter paper strip (4×10 mm), which was then inserted into a Pasteur pipette to create the stimulus cartridge. A sample containing the solvent alone served as control. The airflow across the antennae was maintained constant at a 20 ml/second throughout the experiment. Purified and humidified air was delivered to the preparation through a glass tube (10-mm inner diameter) perforated by a small hole 10 cm away from the end of the tube, into which the tip of the Pasteur pipette could be inserted. The stimulus was delivered to the sensilla by inserting the tip of the stimulus cartridge into this hole and diverting a portion of the air stream (0.5 l/min) to flow through the stimulus cartridge for 500 ms using a stimulus controller (Syntech, Germany). The distance between the end of the glass tube and the antennae was ≤1 cm. The number of spikes/second was obtained by averaging the results for each sensillum/compound combination.
(§3) To identify which mosquito olfactory receptor neuron(s) responds to pyrethrum, single sensillum recordings (SSR) were performed of Ae. aegypti antennal olfactory sensilla in response to a panel of odorants (FIG. 2C-2L), most of which are plant-derived mosquito repellents, such as pyrethrum, (±)-citronellal, geranyl acetate and (−)-borneol. Three responsive sst sensilla were identified, sst1-3, and six responsive sbt sensilla, sbt1-6, based on their response profiles to the odorants in the panel (FIG. 2B, 2D-2L).

Ae. aegypti mosquitoes = test: Hand-in-cage spatial repellency assay; format: in vivo, Aedes aegypti; details: for effect of (E)-β-farnesene on repellency of the compound: EBF 4 ppm, P-I 1000 ppm, P-II 1000 ppm, (−)-borneol 100 ppm; for repellency in pyrethrum/pyrethroid resistant KDR:ROCK mosquitoes compared to ROCK: FIG. 4G; for repellency in AaOr31−/− mosquitoes compared to wild-type mosquitoes: ROCK wild-type
Description: The hand-in-cage assay employed was similar to the hand-in-glove assay described by Boyle et al. (bioRxiv, 060178 (2016)). The setup for the hand-in-cage assay includes a 30 cm×30 cm×30 cm mosquito cage (BioQuip, Rancho Dominguea, Calif.), with a mounted digital camera and a human hand in a modified glove with a screened window. The digital camera (e-con Systems Inc, San Jose, Calif., model: e-CAM51A) for video recording is mounted on the cage top and connected to a laptop computer. A nitrile rubber glove (Ansell Protective Products, Coshoton, Ohio, part number: 37-155) was cut on the back side of the glove to create a window (6 cm×5 cm) (FIG. 1A). A piece of magnetic frame (slightly larger than the dimension of the window) was glued onto the cut window which was used as a base for stacking more magnetic window frames (FIG. 1A; further explained below). One piece of test compound-treated polyester netting (Shason Textile Inc., part number: WS-B532-111, white; slightly larger than the dimension of the window) was placed on this fixed magnetic frame, which was ˜3.0 mm above the glove. The second piece of the netting was untreated and placed ˜6.0 mm above the treated net using a stack of four magnetic frames. The stacked magnetic frames were further secured with a binder clip. The stacking creates sufficient space between the treated net and the untreated net so that mosquitoes that land on the open window were not able to contact treated net, or to contact and pierce skin of a hand in the glove. The hand makes no contact with the treated net.
The assay was run in a room with humidity between around 50% and temperature between 27° C. to 30° C. Twenty-four hours before an assay, four to nine days-old females (about 40, mated, non-blood fed) were transferred into a mosquito cage. The cage was kept in an incubator where mosquitoes were provided only with water in a cotton ball placed on the top of the cage. Immediately before the assay, one researcher treated pieces of netting with 500 μl test compound dissolved in acetone in a glass Petri dish in an adjacent room. Acetone served a control. After letting acetone evaporate (˜7 min), the researcher assembled and put on a modified glove. In the meantime, a second researcher or a lab assistant transferred the prepared cage from the incubator to a bench in the assay room. Both personnel avoided use of any hand lotions and cosmetic products before an assay and wore white lab coats and gloves during the assay. The hand with the modified glove was introduced into the cage to initiate the assay. Mosquitoes landing on the test window was recorded by the digital camera for five minutes. The number of mosquitoes landing during the second to fifth minutes was counted and recorded. For each cage, solvent (acetone) control was tested first and then followed with a treatment. Data from any cage that gave a low landing number in a control trial were discarded. The time interval of assays between control and treatment was at least 1.5 hours, allowing the mosquitoes to fully recover and residual vapors from experiments to be ventilated out of the room. Percentage repellency was determined for each cage using the following equation:
Percentage repellency=[1−(cumulative number of mosquitoes landed on the window of treatment/cumulative number of mosquitoes landed on the window of solvent treatment)]×100).
The spatial repellency of pyrethrum was examined using a hand-in-cage assay (Ogoma et al. PLoS neglected tropical diseases 11, e0005455 (2017)). In this behavioral assay, mosquitoes were attracted to a human hand in a modified glove (FIG. 1A) with a screened window on the back of the glove. The mosquitoes landed on a piece of control mesh secured on the top of the window. Between the control mesh and the hand is another mesh treated with a test compound, with which mosquitoes cannot make direct contact (FIG. 1A).

AgOr31 = test: SSR of Drosophila ab3A empty neurons expressing AgOr31; format: cell-based, Anopheles gambiae; details: 10^−2 dilution
Description: The method of Carey et al. (Nature 464, 66-71 (2010)) was used for heterologous expression of AgORs in the ab3 empty neurons. The Gal4 line (w; Cyo/Δhalo; Or22a-Gal4) was kindly provided by John Carlson (Yale Univ.), and 50 UAS-AgOr lines were obtained from the Bloomington Drosophila stock center.
Having identified sbt-1 and sst-1 as primary olfactory receptor neurons that are responsive to pyrethrum, experiments were designed to identify the specific odorant receptors (Ors) that are involved in these responses. An indexed library of An. gambiae Ors (AgOrs) (Carey et al., Nature 464, 66-71 (2010)) was used. Each of the 50 AgOrs was expressed in the “ab3 empty neuron” system of Drosophila melanogaster, in which the endogenous odorant receptor gene, Or22a, in the ab3 sensillum was deleted (FIG. 2N-2O, FIG. 3A).
Single sensillum recordings (SSR) were then examined from the resulting chimera ab3 sensillum that expressed the individual AgOrs in the D. melanogaster antenna when these flies were exposed to the same panel of odorants used in the analysis of Ae. aegypti sensilla. […] The odorant response profile of the sbt-1A neuron matches remarkably well with that of AgOr31 (FIGS. 2C, 2O).

[2] = test system: sbt-1 sensilla (sbt-1A and sbt-1B neurons); test: Single sensillum recording (SSR) of antennal sbt-1 sensilla; format: cell-based, Aedes aegypti; details: for response of sbt-1A neuron / response of sbt-1B neuron: wild-type ROCK; for response of sbt-1A neuron: pyrethrum and EBF at 10^−2 dilution; for response of sbt-1A neurons in AaOr31−/− mosquitoes: AaOr31 knockout vs ROCK, 10^−2 dilution, FIG. 3A; for response of sbt-1B neurons in AaOr31−/− mosquitoes: AaOr31 knockout, specificity control; for response of sbt-1B neuron: pyrethrum at 10^−2
Method: as §1, §2, §3

[3] = 10^−3 dilution, Orlando (wild-type), FIG. 4B

## C=C/C=C\CC1=C(C)[C@@H](OC(=O)[C@@H]2[C@@H](C=C(C)C)C2(C)C)CC1=O [pyrethrin I]
[1]
  response of sst-1A neurons: activated
Ae. aegypti mosquitoes; 1 ppm, ROCK, FIG. 4E
  repellency alone: did not elicit repellency
Ae. aegypti mosquitoes; 10^−3 dilution, FIG. 4B
  repellency in orco−/− mosquitoes compared to Orlando: significantly reduced
Ae. aegypti mosquitoes; [3]
  spatial repellency: elicited spatial repellency
Ae. aegypti mosquitoes; ROCK, FIG. 4D
  effect of (E)-β-farnesene on repellency of the compound: synergized
Ae. aegypti mosquitoes
  repellency in pyrethrum/pyrethroid resistant KDR:ROCK mosquitoes compared to ROCK: reduced
Ae. aegypti mosquitoes; pyrethrin I 1 ppm, EBF 10 ppm, ROCK, FIG. 4E
  synergism with (E)-β-farnesene in repellency: still evident

## CC12CCC(CC1=O)C2(C)C (centres unmarked) [camphor]
[1]
  response of sst-1A neuron: activated

## CCCCC/C=C\C/C=C\CCCCCCCC(=O)OCC [ethyl linoleate]
AgOr31
  activation of AgOr31: None
[2]
  response of sbt-1A neuron: None

## C=CC(=C)CC/C=C(\C)CCC=C(C)C [(E)-β-farnesene]
AgOr31
  activation of AgOr31: activated
Ae. aegypti mosquitoes; 4 ppm and 10 ppm, ROCK or AaOr31−/− mosquitoes, FIG. 4H
  repellency alone: did not elicit repellency
Ae. aegypti mosquitoes; 10^−2 dilution, FIG. 3B
  repellency in AaOr31−/− mosquitoes compared to wild-type mosquitoes: significantly reduced
Ae. aegypti mosquitoes; 10^−2 dilution, ROCK, FIG. 3B
  spatial repellency: elicited spatial repellency
Ae. aegypti mosquitoes; 1000 ppm or lower concentrations, FIG. 4H
  repellency alone: no repellency
Ae. aegypti mosquitoes; EBF 4 ppm with P-II 1000 ppm, FIG. 4D
  repellency enhancement by (E)-β-farnesene in AaOr31−/− mosquitoes: abolished
Ae. aegypti mosquitoes; at 4 ppm or below
  repellency alone: did not exhibit repellency
[2]
  response of sbt-1A neurons in AaOr31−/− mosquitoes: completely abolished
  response of sbt-1A neuron: activated

## CC12CCC(CC1)C(C)(C)O2 [eucalyptol]
[1]
  response of sst-1A neuron: activated

## CC(C)=CCCC(C)CC=O (racemic) [(±)-citronellal]
[1]
  response of sst-1A neuron: activated
Ae. aegypti mosquitoes; 10^−2 dilution, FIG. 3B
  repellency in AaOr31−/− mosquitoes compared to wild-type mosquitoes: significantly reduced
[2]
  response of sbt-1A neurons in AaOr31−/− mosquitoes: completely abolished
  response of sbt-1A neuron: strong excitatory responses

## Cc1ccccc1 [toluene]
[2]
  response of sbt-1B neurons in AaOr31−/− mosquitoes: remained intact
  response of sbt-1B neuron: highly sensitive

## C=C/C=C\CC1=C(C)[C@@H](OC(=O)[C@@H]2[C@@H](/C=C(\C)C(=O)OC)C2(C)C)CC1=O [pyrethrin II]
[1]
  response of sst-1A neurons: activated
Ae. aegypti mosquitoes; 10^−3 dilution, FIG. 4B
  repellency in orco−/− mosquitoes compared to Orlando: significantly reduced
Ae. aegypti mosquitoes; [3]
  spatial repellency: elicited spatial repellency
Ae. aegypti mosquitoes; ROCK, FIG. 4D
  effect of (E)-β-farnesene on repellency of the compound: synergized
Ae. aegypti mosquitoes
  repellency in pyrethrum/pyrethroid resistant KDR:ROCK mosquitoes compared to ROCK: reduced

## CCCCCCCCCCCCCCCC(=O)OCC [ethyl palmitate]
AgOr31
  activation of AgOr31: None
[2]
  response of sbt-1A neuron: None

## c1ccc2[nH]ccc2c1 [indole]
[2]
  response of sbt-1B neurons in AaOr31−/− mosquitoes: remained intact
  response of sbt-1B neuron: highly sensitive

## CC(=O)OC/C=C(\C)CCC=C(C)C [geranyl acetate]
Ae. aegypti mosquitoes; 10^−2 dilution, FIG. 3B
  repellency in AaOr31−/− mosquitoes compared to wild-type mosquitoes: significantly reduced
[2]
  response of sbt-1A neurons in AaOr31−/− mosquitoes: completely abolished
  response of sbt-1A neuron: strong excitatory responses
